From US20240199623A1 (ILDONG PHARMACEUTICAL CO., LTD., priority 2020, published 2024)
Values after ≈ are worked out from the molar mass of the structure shown.

Key:
[1] = Phosphate-buffered saline (PBS) solubility of compounds; assay type: physicochemical; details: aqueous buffer, thermodynamic from solid, PBS pH 7.5, 0.5 mg/mL, vortexed 90 min, filtered, LC-MS/MS, read-out: Solubility Range
Procedure: PBS solutions (pH 7.5) were prepared according to the following compositions and stored at 4° C. Test compounds were dissolved in PBS (pH 7.5) at 0.5 mg/mL and vortexed for 90 min. The PBS solution was sequentially filtered through a 0.45, 1.2, […] syringe filter. Concentration of test compounds were determined using LC-MS/MS with appropriate dilution of the samples.

C57BL/6 female mice = experiment: Scopolamine induced tear volume reduction model; assay type: in vivo, mouse; details: scopolamine-injected mice, ophthalmic solution topically on both eyes 3 times a day, phenol red thread; average if evaluated twice
Procedure: Seven-week old C57BL/6 female mice were used.
Scopolamine hydrobromide was purchased from Sigma Aldrich (Cat No. S0929), dissolved in saline, and sterilized prior to use.
Zone-Quick phenol red thread was obtained from Menicon.
The test compounds used in this experiment were dissolved in PBS containing 1% of surfactant.
Scopolamine (0.2 ml of 2.5 mg/mL solution) was injected subcutaneously 3 times a day to induce a decrease in the tear volume in the mouse. At the same time, the ophthalmic solution of test compounds or vehicle were topically administered onto both eyes 3 times a day. Tear volume was measured by phenol red thread before dosing (basal level) and 1 hour after the last administration of scopolamine and ophthalmic solution. The results were obtained by measuring the length of the phenol red thread turning red by tears. The schedule of study is expressed as FIG. 1.
If the test compound was evaluated twice, the average value was used.

human wild type-CFTR [2] = target: T1, human wild type-CFTR (Homo sapiens, UniProt P13569); experiment: Short-circuit current measurement; assay type: cell-based; set-up: expressed in transfected cells; details: FRT cells expressing human wild type-CFTR; Forskolin 20 μM signal used as 100% activity; read-out: Short-circuit current measurement (EC50) Concentration range
Text: Forskolin (Tocris cat. #1099), CFTRinh-172 (Tocris cat. #3430), amphotericin B (Tocris cat. #6930), dimethyl sulfoxide (Sigma cat. #D4540), EVC4000 Multi-Channel V/I Clamp (World Precision Instruments, Sarasota, FL), PowerLab 4/35 (AD Instruments, Castle Hill, Australia), Labchart Pro 7, GraphPad Prism 5 (GraphPad Software, Inc.). Fisher rat thyroid (FRT) cells expressing human wild type-CFTR were provided by Dr. Alan Verkman (University of California, San Francisco) and grown in DMEM/F12 medium (1:1) supplemented with 10% FBS, 2 mM glutamine, 100 units/ml penicillin and 100 μg/ml streptomycin. Snapwell inserts containing CF TR-expressing FRT cells were mounted in Ussing chambers (Physiologic Instruments, San Diego, CA). […] Forskolin, test compounds, and CFTRinh-172 were added to the apical and basolateral bath solution. Apical membrane current and short-circuit current were measured with an EVC4000 Multi-Channel V/I Clamp (World Precision Instruments, Sarasota, FL) and recorded using PowerLab 4/35 (AD Instruments, Castle Hill, Australia). Data were collected and analyzed with ADInstruments acquisition software Labchart Pro 7 software. The sampling rate was 4 Hz.

human wild type-CFTR [3] = target: T1, human wild type-CFTR; experiment: Cell-based YFP assay; set-up: expressed in transfected cells; host or cells: CHO-K1 (Chinese hamster ovary); details: CHO-K1 cells expressing human wild type-CFTR and YFP-H148Q/I152L; forskolin 20 μM = 100% activity; read-out: Cell-based YFP Assay (EC50) Concentration Range
How it was run: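 CHO-K1 cells co-expressing human wild-type CFTR and YFP-H148Q/I152L halide sensor, grown 48 h at 37 °C, then in PBS. YFP quenching by I⁻ influx read at 37 °C after adding 140 mM I⁻ solution, sampled every 0.4 s for 14 s. Triplicates averaged; EC50 fitted.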

T1 sequence (P13569 whole entry): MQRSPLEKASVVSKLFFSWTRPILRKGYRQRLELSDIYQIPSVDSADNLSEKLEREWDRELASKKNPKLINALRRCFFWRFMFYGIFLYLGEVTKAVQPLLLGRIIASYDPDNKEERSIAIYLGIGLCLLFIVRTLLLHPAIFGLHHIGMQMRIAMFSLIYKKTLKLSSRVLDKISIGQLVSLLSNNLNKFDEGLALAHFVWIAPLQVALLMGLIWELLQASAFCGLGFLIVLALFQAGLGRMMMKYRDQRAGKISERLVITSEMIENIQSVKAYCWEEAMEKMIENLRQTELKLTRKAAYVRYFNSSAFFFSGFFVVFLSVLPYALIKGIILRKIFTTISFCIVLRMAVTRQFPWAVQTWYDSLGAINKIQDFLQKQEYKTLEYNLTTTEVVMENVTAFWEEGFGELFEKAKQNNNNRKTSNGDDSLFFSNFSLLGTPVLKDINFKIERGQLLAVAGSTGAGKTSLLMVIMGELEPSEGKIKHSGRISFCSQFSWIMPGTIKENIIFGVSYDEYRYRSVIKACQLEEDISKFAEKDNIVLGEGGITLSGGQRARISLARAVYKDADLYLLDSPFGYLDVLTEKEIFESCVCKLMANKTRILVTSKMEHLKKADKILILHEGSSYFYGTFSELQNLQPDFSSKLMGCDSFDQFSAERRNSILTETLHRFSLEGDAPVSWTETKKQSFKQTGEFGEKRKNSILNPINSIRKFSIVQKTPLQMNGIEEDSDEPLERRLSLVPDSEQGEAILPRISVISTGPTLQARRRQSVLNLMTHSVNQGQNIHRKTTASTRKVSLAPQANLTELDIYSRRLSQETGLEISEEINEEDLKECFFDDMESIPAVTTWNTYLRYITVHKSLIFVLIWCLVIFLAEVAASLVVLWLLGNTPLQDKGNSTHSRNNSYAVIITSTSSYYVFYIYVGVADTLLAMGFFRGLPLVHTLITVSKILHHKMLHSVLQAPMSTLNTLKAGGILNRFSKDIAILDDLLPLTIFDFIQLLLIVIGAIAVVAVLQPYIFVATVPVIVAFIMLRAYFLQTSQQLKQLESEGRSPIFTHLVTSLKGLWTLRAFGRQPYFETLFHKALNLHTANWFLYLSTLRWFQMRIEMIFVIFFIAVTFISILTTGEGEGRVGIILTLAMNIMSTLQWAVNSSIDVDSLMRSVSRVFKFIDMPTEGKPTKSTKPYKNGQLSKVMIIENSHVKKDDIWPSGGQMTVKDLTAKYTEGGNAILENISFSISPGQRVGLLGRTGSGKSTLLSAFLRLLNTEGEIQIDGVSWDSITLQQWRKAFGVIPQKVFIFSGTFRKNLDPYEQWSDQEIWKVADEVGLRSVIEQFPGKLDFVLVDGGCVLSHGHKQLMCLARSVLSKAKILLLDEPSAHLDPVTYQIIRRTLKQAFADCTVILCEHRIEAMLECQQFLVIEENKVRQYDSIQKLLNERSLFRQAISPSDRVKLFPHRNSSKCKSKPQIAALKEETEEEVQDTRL

Compound | solubility at 90 min [1] [µg/mL] | Ratio of tear volume (test compound to vehicle) (C57BL/6 female mice) | EC50 (human wild type-CFTR [2]) [nM] | EC50 (human wild type-CFTR [3]) [nM]
COc1ccc(-c2ccnc3cc(C(=O)NC4CCCCC4)nn23)cc1OC [Compound 2, N-cyclohexyl-7-(3,4-dimethoxyphenyl)pyrazolo[1,5-a]pyrimidine-2-carboxamide] | < 0.1 | 1.40 | 200 to 2000 | < 200
CCOc1ccc(NC(=O)c2cc3nccc(-c4ccc(OC)c(OC)c4)n3n2)cc1 [Compound 3, 7-(3,4-dimethoxyphenyl)-N-(4-ethoxyphenyl)pyrazolo[1,5-a]pyrimidine-2-carboxamide] | < 0.1 | 1.20 | < 200 | < 200
COc1ccc(NC(=O)c2cc3nccc(-c4ccc(OC)c(OC)c4)n3n2)cc1 [Compound 6, 7-(3,4-dimethoxyphenyl)-N-(4-methoxyphenyl)pyrazolo[1,5-a]pyrimidine-2-carboxamide] | < 0.1 | 1.58 | < 200 | < 200
COC(=O)C12CC(NC(=O)c3cc4nccc(-c5ccc(OC)c(OC)c5)n4n3)(C1)C2 [Compound 36, methyl 3-(7-(3,4-dimethoxyphenyl)pyrazolo[1,5-a]pyrimidine-2-carboxamido)bicyclo[1.1.1]pentane-1-carboxylate] | 0.1 to 10 (≈ 0.237 to 23.7 µM) | 1.23 | ≥ 2000 | 200 to 2000
COc1ccc(-c2ccnc3cc(C(=O)N[C@H]4CC[C@H](O)CC4)nn23)cc1OC [Compound 69, 7-(3,4-dimethoxyphenyl)-N-((1R,4R)-4-hydroxycyclohexyl)pyrazolo [1,5-a]pyrimidine-2-carboxamide] | > 10 | 0.76 | ≥ 2000 | 200 to 2000
COc1ccc(-c2ccnc3cc(C(=O)N[C@H]4CC[C@@H](C(=O)N5CCOCC5)CC4)nn23)cc1OC [Compound 72, 7-(3,4-dimethoxyphenyl)-N-((1S,4S)-4-(morpholine-4-carbonyl)cyclohexyl) pyrazolo[1,5-a]pyrimidine-2-carboxamide] | > 10 | 1.06 | ≥ 2000 | 200 to 2000
COc1ccc(-c2ccnc3cc(C(=O)Nc4ccc(C(=O)O)cc4C)nn23)cc1OC [Compound 126, 4-(7-(3,4-dimethoxyphenyl)pyrazolo[1,5-a]pyrimidine-2-carboxamido)-3-methylbenzoic acid] | 0.1 to 10 (≈ 0.231 to 23.1 µM) | 0.97 | ≥ 2000 | 200 to 2000
COC(=O)c1ccc(NC(=O)c2cc3nccc(-c4ccc(OC)c(OC)c4)n3n2)cc1Cl [Compound 140, methyl 2-chloro-4-(7-(3,4-dimethoxyphenyl)pyrazolo[1,5-a]pyrimidine-2-carboxamido)benzoate] | < 0.1 | 1.48 | < 200 | < 200
COC(=O)c1ccc(NC(=O)c2cc3nccc(-c4ccc(OC)c(OC)c4)n3n2)cc1F [Compound 141, methyl 4-(7-(3,4-dimethoxyphenyl)pyrazolo [1,5-a]pyrimidine-2-carboxamido)-2-fluorobenzoate] | < 0.1 | 1.34 | < 200 | < 200
COc1ccc(-c2ccnc3cc(C(=O)NC45CCC(C(=O)O)(CC4)CC5)nn23)cc1OC [Compound 149, 4-(7-(3,4-dimethoxyphenyl)pyrazolo[1,5-a]pyrimidine-2-carboxamido)bicyclo[2.2.2]octane-1-carboxylic acid] | > 10 | 1.26 | ≥ 2000 | 200 to 2000
COc1ccc(-c2ccnc3cc(C(=O)Nc4ccc(C(=O)N5CCN(C)CC5)cc4F)nn23)cc1OC [Compound 158, 7-(3,4-dimethoxyphenyl)-N-(2-fluoro-4-(4-methylpiperazine-1-carbonyl)phenyl)pyrazolo[1,5-a]pyrimidine-2-carboxamide] | < 0.1 | 1.40 | < 200 | < 200
COc1ccc(-c2ccnc3cc(C(=O)Nc4ccc(C(=O)N5CCN(C(C)C)CC5)cc4)nn23)cc1OC [Compound 159, 7-(3,4-dimethoxyphenyl)-N-(4-(4-isopropylpiperazine-1-carbonyl)phenyl)pyrazolo[1,5-a]pyrimidine-2-carboxamide] | 0.1 to 10 (≈ 0.189 to 18.9 µM) | 2.11 | 200 to 2000 | 200 to 2000
COc1ccc(-c2ccnc3cc(C(=O)NC45CCC(C(=O)N6CCOCC6)(CC4)CC5)nn23)cc1OC [Compound 186, 7-(3,4-dimethoxyphenyl)-N-(4-(morpholine-4-carbonyl)bicyclo[2.2.2]octan-1-yl)pyrazolo[1,5-a] pyrimidine-2-carboxamide] | > 10 | 1.05 | 200 to 2000 | < 200
COc1ccc(-c2ccnc3cc(C(=O)N[C@H]4CC[C@H](C(=O)OCCCN5CCOCC5)CC4)nn23)cc1OC [Compound 197, 3-morpholinopropyl (1r,4r)-4-(7-(3,4-dimethoxyphenyl)pyrazolo [1,5-a]pyrimidine-2-carboxamido)cyclohexane-1-carboxylate] |  | 1.18 | 200 to 2000 | 200 to 2000
COc1ccc(-c2ccnc3cc(C(=O)N4CCN(Cc5c(F)cccc5F)CC4)nn23)cc1OC [Compound 212, (4-(2,6-difluorobenzyl)piperazin-1-yl)(7-(3,4-dimethoxyphenyl)pyrazolo [1,5-a]pyrimidin-2-yl)methanone] | 0.1 to 10 (≈ 0.203 to 20.3 µM) | 1.43 | ≥ 2000 | < 200
COc1ccc(-c2ccnc3cc(C(=O)N4CCN(C(=O)c5c(F)c(F)c(F)c(F)c5F)[C@@H](C)C4)nn23)cc1OC [Compound 259, (S)-(7-(3,4-dimethoxyphenyl)pyrazolo[1,5-a]pyrimidin-2-yl) (3-methyl-4-(perfluorobenzoyl)piperazin-1-yl)methanone] | 0.1 to 10 (≈ 0.174 to 17.4 µM) | 0.94 | 200 to 2000 | 200 to 2000
COc1ccc(-c2ccnc3cc(C(=O)Nc4ccc(N5CCN(C(=O)OC(C)(C)C)CC5)cn4)nn23)cc1OC [Compound 272, tert-butyl 4-(6-(7-(3,4-dimethoxyphenyl)pyrazolo [1,5-a]pyrimidine-2-carboxamido)pyridin-3-yl)piperazine-1-carboxylate] | < 0.1 | 1.14 |  | < 200
COc1ccc(-c2ccnc3cc(C(=O)Nc4ccc(N5CC=CCC5)cc4)nn23)cc1OC [Compound 273, N-(4-(3,6-dihydropyridin-1(2H)-yl)phenyl)-7 (3,4-dimethoxyphenyl) pyrazolo[1,5-a]pyrimidine-2-carboxamide] | < 0.1 | 0.80 |  | < 200
COc1ccc(-c2ccnc3cc(C(=O)Nc4ccc(N(C)C)cc4)nn23)cc1OC [Compound 276, 7-(3,4-dimethoxyphenyl)-N-(4-(dimethylamino)phenyl)pyrazolo[1,5-a]pyrimidine-2-carboxamide] | < 0.1 | 1.21 |  | < 200
